Test results: publication PMC3481288 (The Journal of Biological Chemistry, 2012)

Target: T1, PBP2ALGA (Staphylococcus aureus, UniProt F4NA57)
T1 sequence (F4NA57 23-665 limits assumed): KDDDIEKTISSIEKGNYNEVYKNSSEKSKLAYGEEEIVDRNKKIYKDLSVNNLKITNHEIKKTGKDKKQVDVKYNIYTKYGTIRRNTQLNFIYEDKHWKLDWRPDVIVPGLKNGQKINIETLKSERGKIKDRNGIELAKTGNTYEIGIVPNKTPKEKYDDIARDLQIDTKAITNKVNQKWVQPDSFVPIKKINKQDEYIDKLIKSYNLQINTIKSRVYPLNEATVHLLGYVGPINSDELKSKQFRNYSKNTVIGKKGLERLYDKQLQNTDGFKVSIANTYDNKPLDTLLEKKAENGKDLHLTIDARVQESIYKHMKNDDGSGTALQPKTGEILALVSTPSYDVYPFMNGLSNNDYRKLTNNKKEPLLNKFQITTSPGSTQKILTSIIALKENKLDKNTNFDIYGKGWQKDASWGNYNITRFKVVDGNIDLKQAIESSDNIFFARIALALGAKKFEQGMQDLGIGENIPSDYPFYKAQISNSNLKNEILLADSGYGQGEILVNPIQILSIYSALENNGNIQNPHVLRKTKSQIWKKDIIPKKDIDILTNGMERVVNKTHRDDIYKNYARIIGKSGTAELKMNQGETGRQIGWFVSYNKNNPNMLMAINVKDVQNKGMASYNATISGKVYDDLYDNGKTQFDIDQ
Assay: Bocillin FL competition, SDS-PAGE fluorescence
Assay type: binding

| IC50 | Compound |
| --- | --- |
| 212 µM | Cc1onc(-c2ccccc2)c1C(=O)N[C@@H]1C(=O)N2[C@@H]1SC(C)(C)[C@@H]2C(=O)O [oxacillin] |
| 501 µM | CO[C@@]1(NC(=O)Cc2cccs2)C(=O)N2C(C(=O)O)=C(COC(N)=O)CS[C@@H]21 [cefoxitin] |
